Test system: pHXB2D control
Test: Antiviral experiment with control clone, transfected directly without recombination
Assay type: cell-based, HIV
Details: no recombination; for fold change: fold change in EC50
Method: Recombinant virus was produced by co-transfection by electroporation of the SmaI-linearized IN-deletion construct and the integrase amplicon into MT4 cells or MT4 cells equipped with an LTR driven reporter gene construct. Production of recombinant virus was evaluated by scoring the cytopathogenic effect (CPE) that is induced by HIV-infection of MT4 cells or by the LTR-driven reporter signal induced by HIV infection in MT4 reporter cells. Green fluorescent protein was used as the reporter signal. Viruses are harvested and titrated at maximum CPE. For recombination the deletion construct pSV40HXB2D-ΔIN was used. Recombination experiments were performed with amplicon from wildtype HIV IIIB and NL4.3, and patient sample 146514 generated by both primer sets. For each recombination 2 µg amplicon was co-transfected with 10 µg SmaI-digested pSV40HXB2D-ΔIN by electroporation into MT4-LTR-EGFP cells. Virus stocks were titrated and tested in an antiviral experiment on a reference panel including nucleoside reverse transcriptase inhibitors (NRTI), non- nucleoside reverse transcriptase inhibitors (NNRTI), protein inhibitor (PR), entry and integrase (IN) inhibitors (Table 2). Recombination was checked by nucleic acid sequence analysis using protocols known to the person skilled in the art. Sequencing primers which can be used are In_seq1F (SEQ ID NO 17), In_seq2F (SEQ ID NO 18), In_seq3F (SEQ ID NO 19), IN_seq1R (SEQ ID NO 20), IN_seq2R (SEQ ID NO 21), and IN_seq3R (SEQ ID NO 22). The recombinant virus was evaluated in an anti-viral assay with a panel of reference compounds including nucleoside RT inhibitors (NRTI) Zidovudine (AZT) Lamivudine (3TC), Didanosine (DDI), non-nucleoside RT inhibitors (NNRTI) Nevirapine (NVP), 4-[[6-amino-5-bromo-2-[(4-cyanophenyl)amino]-4-pyrimidinyl]oxy]-3,5-dimethyl-benzonitrile also referred to as compound 1, 4-[[6-amino-5-bromo-2-[(4-cyanophenyl)amino]-4-pyrimidinyl]oxy]-3,5-dimethyl-Benzonitrile, also referred to as compound 2 protease inhibitors (PR) Saquinavir (SQV), Amprenavir (APV), Indinavir (IDV), [[…]-3-[[(4-aminophenyl)sulfonyl](2-methylpropyl)amino]-2-hydroxy-1-(phenylmethyl)-propyl]-, (3R,3aS,6aR)-hexahydrofuro[2,3-b]furan-3-yl ester carbamic acid also referred to as compound 3, entry-inhibitors (Entry)(AMD3100, DS5000, ATA), and integrase inhibitor (IN) 2-(1-methylethyloxy)-α,γ dioxo-5-(phenylmethyl)-benzenebutanoic acid also referred to as compound 4. […] AVE means antiviral experiment. Type means the type of inhibitor investigated. The fold change is the fold change in EC50. WT III B means that a portion of the wild type IIIB strain has been amplified and used in the antiviral experiment, including transfection and generation of recombinant virus. NL 4-3 means the integrase gene of this laboratory strain has been amplified and subsequently used for the antiviral experiment. […] No recombination has been effected using this HIV clone. pHXB2D has been used directly for transfection and antiviral experiment. Primer set 3 consist of outer primers 5'EGINT3 (SEQ ID NO 4) and 3'EGINT10 (SEQ ID NO 11), and inner primers 5'EGINT4 (SEQ ID NO 5) and 3'EGINT6 (SEQ ID NO 7). Primer set 4 consist of outer primers 5'EGINT3 (SEQ ID NO 4) and 3'EGINT10 (SEQ ID NO 11), and inner primers 5'EGINT5 […] and 3'EGINT6 (SEQ ID NO 7). Other suitable integrase inhibitors include L-731,988, diketo-acids and S-1360.

[1] = Human immunodeficiency virus 1, AVE 6, pHXB2D control

## c1cc(CN2CCCNCCNCCCNCC2)ccc1CN1CCCNCCNCCCNCC1 [AMD3100]
AVE 6, pHXB2D control
  fold change: 1,0
[1]
  EC50: 0.0556 µM

## CC(C)CN(C[C@@H](O)[C@H](Cc1ccccc1)NC(=O)O[C@H]1CCOC1)S(=O)(=O)c1ccc(N)cc1 [APV, Amprenavir]
AVE 6, pHXB2D control
  fold change: 1,0
[1]
  EC50: 0.0838 µM

## O=C(O)C1=CC(=C(c2ccc(O)c(C(=O)O)c2)c2ccc(O)c(C(=O)O)c2)C=CC1=O [ATA]
AVE 6, pHXB2D control
  EC50: 2.07 µM
  fold change: 1,0

## Cc1cn([C@H]2C[C@H](N=[N+]=[N-])[C@@H](CO)O2)c(=O)[nH]c1=O [AZT, Zidovudine]
AVE 6, pHXB2D control
  fold change: 1,0
[1]
  EC50: 0.168 µM

## Cc1cc(C#N)cc(C)c1Oc1nc(Nc2ccc(C#N)cc2)nc(N)c1Br [Compound 1, 4-[[6-amino-5-bromo-2-[(4-cyanophenyl)amino]-4-pyrimidinyl]oxy]-3,5-dimethyl-benzonitrile]
AVE 6, pHXB2D control
  EC50: 0.001 µM
  fold change: 1,0

## Cc1cc(C#N)cc(C)c1Oc1nc(Nc2ccc(C#N)cc2)nc(N)c1Br [Compound 2, 4-[[6-amino-5-bromo-2-[(4-cyanophenyl)amino]-4-pyrimidinyl]oxy]-3,5-dimethyl-Benzonitrile]
AVE 6, pHXB2D control
  EC50: 0.0031 µM
  fold change: 1,0

## Nc1ccn([C@@H]2CS[C@H](CO)O2)c(=O)n1 [Compound 3TC, Lamivudine]
AVE 6, pHXB2D control
  fold change: 1,0
[1]
  EC50: 1.38 µM

## CC(C)Oc1ccc(Cc2ccccc2)cc1C(=O)CC(=O)C(=O)O [Compound 4, 2-(1-methylethyloxy)-α,γ dioxo-5-(phenylmethyl)-benzenebutanoic acid]
AVE 6, pHXB2D control
  fold change: 1,0
[1]
  EC50: 0.276 µM

## O=c1[nH]cnc2c1ncn2[C@H]1CC[C@@H](CO)O1 [DDI, Didanosine]
AVE 6, pHXB2D control
  fold change: 1,0
[1]
  EC50: 4.82 µM

## CC(C)(C)NC(=O)[C@@H]1CN(Cc2cccnc2)CCN1C[C@@H](O)C[C@@H](Cc1ccccc1)C(=O)N[C@H]1c2ccccc2C[C@H]1O [IDV, Indinavir]
AVE 6, pHXB2D control
  fold change: 1,0
[1]
  EC50: 0.0439 µM

## Cc1ccnc2c1NC(=O)c1cccnc1N2C1CC1 [NVP, Nevirapine]
AVE 6, pHXB2D control
  fold change: 1,0
[1]
  EC50: 0.0863 µM

## CC(C)c1nc(CN(C)C(=O)N[C@H](C(=O)N[C@@H](Cc2ccccc2)C[C@H](O)[C@H](Cc2ccccc2)NC(=O)OCc2cncs2)C(C)C)cs1 [RTV, ritonavir]
AVE 6, pHXB2D control
  fold change: 1,0
[1]
  EC50: 0.148 µM

## CC(C)(C)NC(=O)[C@@H]1C[C@@H]2CCCC[C@@H]2CN1C[C@@H](O)[C@H](Cc1ccccc1)NC(=O)[C@H](CC(N)=O)NC(=O)c1ccc2ccccc2n1 [SQV, Saquinavir]
AVE 6, pHXB2D control
  fold change: 1,0
[1]
  EC50: 0.0198 µM

— EP1285971B1, “Methods for the phenotypic and genotypic assessment of the drug sensitivity of HIV integrase variants” (Tibotec Pharmaceuticals Ltd., priority 2001, dated 2003)
